≈ marks a conversion by molar mass, not a printed value.
Experiments:
[1] = system: Escherichia coli; assay: Antibacterial activity against Escherichia coli AS226 after 18 hrs by broth microdilution method; type: functional; details: AS226, 18 h
[2] = system: Escherichia coli; assay: Activity of Escherichia coli beta-lactamase Toho-1 G232A mutant assessed as compound hydrolysis by spectrophotometry
[3] = system: Escherichia coli; assay: Activity of Escherichia coli beta-lactamase Toho-1 C69A mutant assessed as compound hydrolysis by spectrophotometry
[4] = system: Escherichia coli; assay: Activity of Escherichia coli beta-lactamase Toho-1 D240A mutant assessed as compound hydrolysis by spectrophotometry
[5] = system: Escherichia coli; assay: Ratio of Kcat to Km for Escherichia coli beta-lactamase Toho-1 N104A mutant assessed as compound hydrolysis by spectrophotometry
[6] = system: Escherichia coli; assay: Ratio of Kcat to Km for Escherichia coli beta-lactamase Toho-1 N104D mutant assessed as compound hydrolysis by spectrophotometry
[7] = system: Escherichia coli; assay: Antibacterial activity against Escherichia coli AS226 carrying pBSD6 mutant after 18 hrs by broth microdilution method; type: functional; details: AS226, 18 h
[8] = system: Escherichia coli; assay: Antibacterial activity against Escherichia coli AS226 carrying pBSD-H2 after 18 hrs by broth microdilution method; type: functional; details: AS226, 18 h
[9] = system: Escherichia coli; assay: Antibacterial activity against Escherichia coli AS226 carrying pBSDN104A mutant after 18 hrs by broth microdilution method; type: functional; details: AS226, 18 h
[10] = system: Escherichia coli; assay: Activity of Escherichia coli beta-lactamase Toho-1 […] mutant assessed as compound hydrolysis by spectrophotometry
[11] = system: Escherichia coli; assay: Antibacterial activity against Escherichia coli AS226 carrying pBSDN104D mutant after 18 hrs by broth microdilution method; type: functional; details: AS226, 18 h
[12] = system: Escherichia coli; assay: Ratio of Kcat to Km for Escherichia coli beta-lactamase Toho-1 C69A mutant assessed as compound hydrolysis by spectrophotometry
[13] = system: Escherichia coli; assay: Activity of Escherichia coli beta-lactamase Toho-1 F160T mutant assessed as compound hydrolysis by spectrophotometry
[14] = system: Escherichia coli; assay: Antibacterial activity against Escherichia coli AS226 carrying pBSDC69A mutant after 18 hrs by broth microdilution method; type: functional; details: AS226, 18 h
[15] = system: Escherichia coli; assay: Ratio of Kcat to Km for Escherichia coli beta-lactamase Toho-1 F160T mutant assessed as compound hydrolysis by spectrophotometry
[16] = system: Escherichia coli; assay: Ratio of Kcat to Km for Escherichia coli beta-lactamase Toho-1 […] mutant assessed as compound hydrolysis by spectrophotometry
[17] = system: Escherichia coli; assay: Ratio of Kcat to Km for Escherichia coli beta-lactamase Toho-1 D240S mutant assessed as compound hydrolysis by spectrophotometry
[18] = system: Escherichia coli; assay: Antibacterial activity against Escherichia coli AS226 carrying pBSDF160T mutant after 18 hrs by broth microdilution method; type: functional; details: AS226, 18 h
[19] = system: Escherichia coli; assay: Antibacterial activity against Escherichia coli AS226 carrying pBSDD240A mutant after 18 hrs by broth microdilution method; type: functional; details: AS226, 18 h
[20] = system: Escherichia coli; assay: Antibacterial activity against Escherichia coli AS226 carrying pBSDD240S mutant after 18 hrs by broth microdilution method; type: functional; details: AS226, 18 h
[21] = system: Escherichia coli; assay: Activity of Escherichia coli beta-lactamase Toho-1 N104D mutant assessed as compound hydrolysis by spectrophotometry
[22] = system: Escherichia coli; assay: Ratio of Kcat to Km for Escherichia coli beta-lactamase Toho-1 G232A mutant assessed as compound hydrolysis by spectrophotometry
[23] = system: Escherichia coli; assay: Ratio of Kcat to Km for Escherichia coli beta-lactamase Toho-1 D240A mutant assessed as compound hydrolysis by spectrophotometry
[24] = system: Escherichia coli; assay: Activity of Escherichia coli beta-lactamase Toho-1 D240S mutant assessed as compound hydrolysis by spectrophotometry
[25] = system: Escherichia coli; assay: Antibacterial activity against Escherichia coli AS226 carrying pBSDS237A mutant after 18 hrs by broth microdilution method; type: functional; details: AS226, 18 h
[26] = system: Escherichia coli; assay: Activity of Escherichia coli beta-lactamase Toho-1 N104A mutant assessed as compound hydrolysis by spectrophotometry

Row | SMILES | MIC [1] [µg/mL] | Km [2] [µM] | kcat [2] [s⁻¹] | Km [3] [µM] | kcat [3] [s⁻¹] | Km [4] [µM] | kcat [4] [s⁻¹] | kcat/Km [5] | kcat/Km [6] | MIC [7] [µg/mL] | MIC [8] [µg/mL] | MIC [9] [µg/mL] | Km [10] [µM] | kcat [10] [s⁻¹] | MIC [11] [µg/mL] | kcat/Km [12] | Km [13] [µM] | kcat [13] [s⁻¹] | MIC [14] [µg/mL] | MIC [19] [µg/mL] | further results
1 | CC1(C)S[C@@H]2[C@H](NC(=O)[C@H](N)c3ccccc3)C(=O)N2[C@H]1C(=O)O [AMPICILLIN] | 1 (≈ 2.86 µM) | 35 | 37 | 20 | 38 | 21 | 27 | 7.2 ×10⁵ /s/M | 1.1 ×10⁶ /s/M | 128 (≈ 366 µM) | 256 (≈ 733 µM) | 256 (≈ 733 µM) | 120 | 310 | 1020 (≈ 2930 µM) | 1.9 ×10⁶ /s/M | 26 | 39 | 1020 (≈ 2930 µM) | 512 (≈ 1470 µM) | kcat/Km [15]: 1.5 ×10⁶ /s/M; kcat/Km [16]: 2.5 ×10⁶ /s/M; kcat/Km [17]: 1.3 ×10⁶ /s/M; MIC [18]: 512 µg/mL (≈ 1470 µM); MIC [20]: 512 µg/mL (≈ 1470 µM); Km [21]: 25 µM; kcat [21]: 28 s⁻¹; kcat/Km [22]: 1.1 ×10⁶ /s/M; kcat/Km [23]: 1.2 ×10⁶ /s/M; Km [24]: 25 µM; kcat [24]: 33 s⁻¹; MIC [25]: 4100 µg/mL (≈ 11700 µM); Km [26]: 38 µM; kcat [26]: 27 s⁻¹
2 | C[C@H]1[C@H](NC(=O)/C(=N\OC(C)(C)C(=O)O)c2csc(N)n2)C(=O)N1S(=O)(=O)O [AZTREONAM] | < 0.125 | 64 | 6.7 | 58 | 4.5 | 100 | 15 | 3.5 ×10⁴ /s/M | 1.9 ×10⁴ /s/M | 2 (≈ 4.59 µM) | 64 (≈ 147 µM) | 8 (≈ 18.4 µM) | 31 | 9.1 | 1 (≈ 2.3 µM) | 7.7 ×10⁴ /s/M | 69 | 6.6 | 64 (≈ 147 µM) | 128 (≈ 294 µM) | kcat/Km [15]: 9.6 ×10⁴ /s/M; kcat/Km [16]: 2.9 ×10⁵ /s/M; kcat/Km [17]: 1.3 ×10⁵ /s/M; MIC [18]: 16 µg/mL (≈ 36.7 µM); MIC [20]: 64 µg/mL (≈ 147 µM); kcat/Km [22]: 1.1 ×10⁵ /s/M; kcat/Km [23]: 1.5 ×10⁵ /s/M; Km [24]: 93 µM; kcat [24]: 12 s⁻¹; MIC [25]: 128 µg/mL (≈ 294 µM); Km [26]: 240 µM; kcat [26]: 8.6 s⁻¹
3 | CO/N=C(\C(=O)N[C@@H]1C(=O)N2C(C(=O)O)=C(COC(C)=O)CS[C@H]12)c1csc(N)n1 [CEFOTAXIME] | < 0.125 | 259 | 440 | 350 | 370 | 360 | 440 | 1.2 ×10⁵ /s/M | 2.4 ×10⁵ /s/M | 2 (≈ 4.39 µM) | 256 (≈ 562 µM) | 16 (≈ 35.1 µM) | 230 | 94 | 256 (≈ 562 µM) | 1 ×10⁶ /s/M | 360 | 410 | 1020 (≈ 2250 µM) | 512 (≈ 1120 µM) | kcat/Km [15]: 1.2 ×10⁶ /s/M; kcat/Km [16]: 4.1 ×10⁵ /s/M; kcat/Km [17]: 1.2 ×10⁶ /s/M; MIC [18]: 256 µg/mL (≈ 562 µM); MIC [20]: 1020 µg/mL (≈ 2250 µM); kcat/Km [22]: 1.7 ×10⁶ /s/M; kcat/Km [23]: 1.3 ×10⁶ /s/M; Km [24]: 320 µM; kcat [24]: 370 s⁻¹; MIC [25]: 32 µg/mL (≈ 70.3 µM)
4 | C[C@@H](O)[C@H]1C(=O)N2C(C(=O)O)=C(SCCNC=N)C[C@H]12 [IMIPENEM ANHYDROUS] | < 0.125 |  |  |  |  |  |  |  |  |  | < 0.125 | 0.125 (≈ 0.418 µM) |  |  | 0.125 (≈ 0.418 µM) |  |  |  |  | 0.125 (≈ 0.418 µM) | 

From ChEMBL document CHEMBL1687837, “Roles of residues Cys69, Asn104, Phe160, Gly232, Ser237, and Asp240 in extended-spectrum beta-lactamase Toho-1” (2011)
